Laboratory results as given in patent US20240409536A1, “COMPOUNDS AND METHODS FOR MODULATING SPLICING” (REMIX THERAPEUTICS INC., priority 2021, published 2024).

Columns and labels:
MYB mRNA [1] = test: Gene panel canonical junction qPCR assay, MYB CJ mRNA decrease; assay type: cell-based, human; details: Homo sapiens, canonical junction qPCR, read-out: MYB IC50 (decrease in CJ mRNA levels)
How it was run: (§1)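 A673 or K562 cells treated with compound; canonical exon-exon junction mRNA quantified by cDNA synthesis and RT-qPCR with junction-spanning primer/probe, normalized to GAPDH, GUSB or PPIA and DMSO (2^(−ΔΔCt)). Percent response from set ΔCt assay windows fitted to 4-parameter logistic; IC50 for CJ decrease.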

Target C mRNA = test: Gene panel canonical junction qPCR assay, Target C CJ mRNA decrease; assay type: cell-based; details: Homo sapiens, canonical junction qPCR, read-out: Target C IC50 (decrease in CJ mRNA levels)
How it was run: as §1

MYB mRNA [2] = test: Splicing RT-qPCR assay, MYB canonical (CJ) and alternative (AJ) junction mRNA; assay type: cell-based; details: Homo sapiens, A673 or K562 cells, 24 hours; for IC50: decrease in canonical junction mRNA; for AC50: increase in alternative junction mRNA
Description: (§2) Compounds described herein were used to modulate RNA transcript abundance in cells. The expression of a target mRNA was measured by detecting the formation of an exon-exon junction in the canonical transcript (CJ). A compound mediated exon-inclusion event was detected by observing an increase in formation of a new junction with an alternative exon (AJ). Real-time qPCR assays were used to detect these splicing switches and interrogate the potency of various compounds towards different target genes. A high-throughput real time quantitative PCR (RT-qPCR) assay was developed to measure these two isoforms of the mRNA (CJ and AJ) for exemplary genes, such as HTT, SMN2, and MYB, together with a control housekeeping gene, GAPDH or GUSB or PPIA, used for normalization. Briefly, the A673 or K562 cell line was treated with various compounds described herein (e.g., compounds of Formula (I), (I), or (III)). After treatment, the levels of the HTT, MYB, or SMN2 mRNA targets were determined from each sample of cell lysate by cDNA synthesis followed by qPCR.
(§3) • Cells-to-CT 1-step kit: ThermoFisher A25602, Cells-to-CT lysis reagent: ThermoFisher 4391851C, TaqMan™ Fast Virus 1-Step Master Mix: ThermoFisher 4444436 • GAPDH: VIC-PL, ThermoFisher 4326317E (Assay: Hs99999905_ml)—used for K562/suspension cell lines • GUSB: VIC-PL, ThermoFisher 4326320E (Assay: Hs99999908_ml)—used for K562/suspension cell lines • PPIA: VIC-PL, ThermoFisher 4326316E (Assay: Hs99999904_ml)—used for A673/adherent cell lines
(§4) The A673 cell line was cultured in DMEM with 10% FBS. Cells were diluted with full growth media and plated in a 96-well plate (15,000 cells in 100 ul media per well). The plate was incubated at 37° C. with 5% CO2 for 24 hours to allow cells to adhere. An 11-point 3-fold serial dilution of the compounds was made in DMSO then diluted in media in an intermediate plate. Compounds were transferred from the intermediate plate to the cell plate with the top dose at a final concentration of 10 uM in the well. Final DMSO concentration was kept at or below 0.25%. The cell plate was returned to the incubator at 37° C. with 5% CO2 for an additional 24 hours.
(§5) The K562 cell line was cultured in IMDM with 10% FBS. For K562, cells were diluted with full growth media and plated in either a 96-well plate (50,000 cells in 50 uL media per well) or a 384-well plate (8,000-40,000 cells in 45 uL media per well). An 11-point 3-fold serial dilution of the compounds were made in DMSO then diluted in media in an intermediate plate. Compound was transferred from the intermediate plate to the cell plate with the top dose at a final concentration of 10 uM in the well. Final DMSO concentration was kept at or below 0.25%. Final volume was 100 uL for 96-well plate and 50 uL for 384-well plate. The cell plate was then placed in an incubator at 37° C. with 5% CO2 for 24 hours.
(§6) The cells were then gently washed with 50 uL-100 uL cold PBS before proceeding to addition of lysis buffer. 30 uL-50 uL of room temperature lysis buffer with DNAse I (and optionally RNAsin) was added to each well. Cells were shaken/mixed thoroughly at room temperature for 5-10 minutes for lysis to take place and then 3 uL-5 uL of room temperature stop solution was added and wells were shaken/mixed again. After 2-5 minutes, the cell lysate plate was transferred to ice for RT-qPCR reaction setup. The lysates could also be frozen at −80° C. for later use.
(§7) In some cases, a direct lysis buffer was used. An appropriate volume of 3×lysis buffer (10 mM Tris, 150 mM NaCl, 1.5%-2.5% Igepal and 0.1-1 U/uL RNAsin, pH 7.4) was directly added to either K562 or A673 cells in media and mixed by pipetting 3 times. The plates were then incubated at room temperature with shaking/rocking for 20-50 minutes to allow for lysis to take place. After this time, the cell lysate plate was transferred to ice to set up for the RT-qPCR reactions. The lysates could also be frozen at −80° C. for later use. […]

K562 cells = test: Cell Titer Glo 2.0 cell viability assay in K562 cells; details: 72 hours
SMN2 mRNA = test: Gene panel canonical junction qPCR assay, SMN2 CJ mRNA decrease; assay type: cell-based, human; details: Homo sapiens, canonical junction qPCR, read-out: SMN2 IC50 (decrease in CJ mRNA levels)
How it was run: as §1

HTT mRNA [3] = test: Gene panel canonical junction qPCR assay, HTT CJ mRNA decrease; assay type: cell-based, human; details: Homo sapiens, canonical junction qPCR, read-out: HTT IC50 (decrease in CJ mRNA levels)
How it was run: as §1

HTT mRNA [4] = test: Splicing RT-qPCR assay, HTT canonical (CJ) and alternative (AJ) junction mRNA; assay type: cell-based; details: Homo sapiens, A673 or K562 cells, 24 hours; for IC50: decrease in canonical junction mRNA; for AC50: increase in alternative junction mRNA
Description: as §2, §3, §4, §5, §6, §7

Target C = test: HiBiT protein abundance assay, Target C (K562 HiBiT knock-in cells); assay type: cell-based, human; details: 24 hours
Description: (§8) • Promega Nano-Glo HiBiT Lytic Detection System (cat #N3030) • Corning 384-well TC-treated microplates (cat #3570) • Synthego Engineered Cells Knock-In Clones
(§9) Cells were maintained in IMDM with 10% FBS. Before the assay, cells were diluted with […] growth media (IMDM+1% FBS media) and were seeded in a 384-well plate at a density of 10000 cells/well (for each cell line listed in Table 6). Each compound was prepared as a 10-point 3-fold serial dilution in DMSO with the top dose at a final concentration of 10 μM in the well. Unmodified K562 cells were added at the previously specified density with DMSO to serve as an assay baseline and positive control (PC) and DMSO only with the respective modified cell lines was added to the negative control (NC) columns. Final DMSO concentration was kept at or below 0.25%. Treated cell plates were placed in an incubator at 37° C. with 5% CO2 for 24 hours. After 24 hours, 25 μL of Complete HiBit Lytic reagent was added to each well at room temperature (e.g. one plate requiring 10 mL Lytic Buffer, 100 μL LgBiT Protein, 200 μL Lytic Substrate), shaken for 5 minutes at 600 RPM, then left to sit for 10 minutes for signal to stabilize before reading on a Spark Cyto plate reader (Tecan) with a 500 ms measurement time.
(§10) To determine compound effects on protein abundance of each target in Table 6, the percent response for each respective cell line was calculated at each compound concentration as follows:
(§11) For the normalized response at each concentration, a four-parameter logistical regression was fit to the data and the response was interpolated at the 50% value to determine a concentration for protein abundance at 50% (IC50) the untreated control.

HiBiT-tagged MYB protein = test: HiBiT protein abundance assay, MYB (K562 HiBiT knock-in cells); assay type: cell-based, human; details: 24 hours
Description: (§12) Compounds described herein were used to screen for effects on quantitative protein abundance using a HiBit assay system (Promega). Quantitative protein abundance was determined by measuring the protein levels of HiBit-tagged protein targets expressed in cell culture via luminescence using the Nano-Glo HiBiT Lytic Detection System, which uses a split complementation assay format to reconstitute NanoBiT enzyme to generate a luminescent signal. A protein abundance assay was developed such that endogenous protein targets could be modified with the HiBiT peptide tag and their abundance could be assessed after compound treatment. Briefly, K562 cell lines containing a HiBiT-modification were treated with various compounds described herein (e.g., compounds of Formulas (I), (II), or (III)). After treatment for 24 hours, the protein abundance of a specific target was determined by measuring luminescence.
as §8, §9, §10, §11

HiBiT-tagged HTT protein = test: HiBiT protein abundance assay, HTT (K562 HiBiT knock-in cells); assay type: cell-based, human; details: 24 hours
Description: as §12, §8, §9, §10, §11

| IC50 (MYB mRNA [1]) [µM] | IC50 (Target C mRNA) [µM] | IC50 (MYB mRNA [2]) [µM] | IC50 (SMN2 mRNA) [µM] | IC50 (HTT mRNA [3]) [µM] | IC50 (HTT mRNA [4]) [µM] | IC50 (Target C) [µM] | IC50 (HiBiT-tagged MYB protein) [µM] | IC50 (HiBiT-tagged HTT protein) [µM] | SMILES | AC50 (MYB mRNA [2]) [µM] | Viability (K562 cells) | AC50 (HTT mRNA [4]) [µM] |
| --- | --- | --- | --- | --- | --- | --- | --- | --- | --- | --- | --- | --- |
| < 0.1 | > 10 | < 0.1 | < 0.1 | 1 to 10 | 1 to 10 |  |  |  | COc1nc(NC(=O)c2ccc(N3C[C@H](C)N[C@@H](C)C3)c3cccnc23)cn2cc(C)nc12 [Compound 384] | < 0.1 | B (B represents 100-1000 nM) | 1 to 10 |
|  |  |  |  |  |  | 1 to 10 | < 0.1 | 0.1 to 1 | Cc1cn2cc(NC(=O)c3ccc(N4CCNCC4)c4cncnc34)cc(F)c2n1 [Compound 112] |  | B (B represents 100-1000 nM) |  |
| 0.1 to 1 | 1 to 10 | 0.1 to 1 | < 0.1 | 1 to 10 | 1 to 10 |  |  |  | Cc1cn2cc(NC(=O)c3ccc(N4C[C@H](C)N[C@@H](C)C4)c4cccnc34)cc(F)c2n1 [Compound 382] | < 0.1 | B (B represents 100-1000 nM) | 1 to 10 |
| < 0.1 | > 10 | < 0.1 | < 0.1 | 1 to 10 | 1 to 10 |  |  |  | COc1ccc2c(N3C[C@H](C)N[C@@H](C)C3)ccc(C(=O)Nc3cc(F)c4nc(C)cn4c3)c2n1 [Compound 385] | < 0.1 | B (B represents 100-1000 nM) | 1 to 10 |
|  |  |  |  |  |  | 1 to 10 | 1 to 10 | 1 to 10 | Cc1cn2nc(NC(=O)c3ccc(N4CCNCC4)c4ccnnc34)nc2c(C)n1 [Compound 122] |  | C (C represents 1000-9999 nM) |  |
| < 0.1 | 1 to 10 | < 0.1 | < 0.1 | 1 to 10 | 1 to 10 |  |  |  | COc1ncc2c(N3C[C@H](C)N[C@@H](C)C3)ccc(C(=O)Nc3cn4cc(C)nc4c(OC)n3)c2n1 [Compound 387] | < 0.1 | B (B represents 100-1000 nM) | 1 to 10 |
|  |  |  |  |  |  | 0.1 to 1 | < 0.1 | 0.1 to 1 | Cc1ccc2c(N3CCC4(CCN4)CC3)ccc(C(=O)Nc3cc(F)c4nc(C)cn4c3)c2n1 [Compound 195, 5-{1,7-diazaspiro[3.5]nonan-7-yl}-N-{8-fluoro-2-methylimidazo[1,2-a]pyridin-6-yl}-2-methylquinoline-8-carboxamide] |  | A (A represents <100 nM) |  |
|  |  |  |  |  |  | 1 to 10 | 1 to 10 | 1 to 10 | CN[C@H]1CCN(c2ccc(C(=O)Nc3cc(F)c4nc(C)cn4c3)c3nc(OC)cnc23)C1 [Compound 203, (S)—N-{8-fluoro-2-methylimidazo[1,2-a]pyridin-6-yl}-3-methoxy-8-[3-(methylamino)pyrrolidin-1-yl]quinoxaline-5-carboxamide; trifluoroacetic acid] |  | C (C represents 1000-9999 nM) |  |
| 0.1 to 1 | > 10 | 0.1 to 1 | < 0.1 | > 10 | > 10 |  |  |  | COc1nc(NC(=O)c2ccc(N3C[C@H](C)N[C@@H](C)C3)c3nccnc23)cn2cc(C)nc12 [Compound 381] | 0.1 to 1 | B (B represents 100-1000 nM) | > 10 |
| < 0.1 | 0.1 to 1 | < 0.1 | < 0.1 | 0.1 to 1 | 0.1 to 1 |  |  |  | Cc1cn2cc(NC(=O)c3ccc([C@@H]4C[C@@H](C)N[C@@H](C)C4)c4nccnc34)cc(F)c2n1 [Compound 380] | < 0.1 | B (B represents 100-1000 nM) | 0.1 to 1 |
| 0.1 to 1 | 1 to 10 | 0.1 to 1 | < 0.1 | 1 to 10 | 1 to 10 |  |  |  | COc1nc(NC(=O)c2ccc(N3C[C@@H](C)N[C@@H](C)C3)c3cccnc23)cn2cc(C)nc12 [Compound 383] | 0.1 to 1 | B (B represents 100-1000 nM) | 1 to 10 |
| 0.1 to 1 | > 10 | 0.1 to 1 | < 0.1 | 1 to 10 | 1 to 10 |  |  |  | Cc1cn2cc(NC(=O)c3ccc([C@H]4C[C@@H](C)N[C@@H](C)C4)c4nccnc34)cc(F)c2n1 [Compound 379] | 0.1 to 1 | B (B represents 100-1000 nM) | 1 to 10 |
